Laboratory results published in patent US20070237712A1, “Methods of Redistributing Apical Target Antigens to Detect and Treat Cellular Proliferative Disease” (priority 2004, published 2007).
Entries after “also recorded” stand apart in the source; their conditions may differ.

Columns and labels:
Format in all cases: cell-based
[1] = tested on: MDCK-PSMA cells; assay: Post-Golgi analysis assay: co-localization of PSMA and Na,K-β-GFP vesicles after 20° C. block; details: data not shown
Description: MDCK-PSMA cells transiently transfected to express Na,K-β-GFP were grown on glass coverslips and treated with nocodazole or tunicamycin. Cells were incubated for 6 hours at 20° C. to accumulate newly synthesized protein in the Golgi and TGN, subsequently transferred to 37° C. for 30 minutes, and subject to immunofluorescence analysis as described above. Laser scanning confocal microscopy was performed using a Zeiss Axiovert 200 inverted microscope (Carl Zeiss, Inc, Thornwood, N.Y.). Samples were excited with Argon and Helium/Neon lasers and single channel images were generated and analyzed using the Zeiss LSM 510 Meta imaging system (Carl Zeiss, Inc.) by recording light emitted between 505 and 543 nm for GFP and above 560 nm for CY3.

[2] = tested on: PSMA; assay: Selective cell surface biotinylation assay of PSMA at apical or basolateral plasma membrane
Description: (§1) MDCK cells (clone II) were obtained from the ATCC (Manassas, Va.) and cultured in DMEM (Gibco BRL, Rockville, Md.) supplemented with 10% FBS, 2 mM L-glutamine, 25 units/ml penicillin, 25 μg/ml streptomycin, and 100 μM non-essential amino acids. Cells were grown at 37° C. in a humidified incubator with 5% CO2. Cells were treated for 10 hours with 10 mM sodium butyrate to enhance PSMA expression. For experiments involving inhibition of N-glycosylation or microtubule depolymerization, cells were treated for 3 hours with 5 μg/ml tunicamycin (Sigma, St. Louis, Mo.) or 4 μg/ml nocodazole (Sigma), or 2 μM vinblastine, vincristine, or vinorelbine (Sigma) in DMEM at 37° C. prior to the indicated experiment, unless otherwise noted.
(§2) MDCK cells were grown to confluence on transwell filters, as determined by TER, and biotinylation of the apical or basolateral surface was performed as described (25). […]
Samples were separated on 10% SDS polyacrylamide gels and transferred to nitrocellulose. […] After washing three times in PBST and once in PBS, bound antibody was detected by peroxidase-catalyzed ECL-Plus (Amersham, Buckinghamshire, UK). Densitometric analysis and quantification of bands was performed using ImageQuant software (Molecular Dynamics, Sunnyvale, Calif.). […]

[3] = tested on: microtubule cytoskeleton; assay: Immunofluorescence analysis of alpha-tubulin (microtubule integrity); details: MDCK-PSMA cells, 2 μM drug, 3 hours; FIG. 6B-D
Description: as §1
Tissue sections and MDCK cells were fixed in cold methanol at −20° C. for 30 minutes. Following fixation, specimens were placed in humidified chambers, washed with phosphate buffered saline containing 0.1 mM CaCl2 and 1 mM MgCl2 and 0.5% bovine serum albumin (PBS-CM-BSA), incubated 1 hour with primary antibody, washed with PBS-CM-BSA, incubated 30 minutes in secondary antibody, washed with PBS-CM-BSA, rinsed with distilled water, and mounted in Vectashield (Vector, Burlingame, Calif.).

[4] = tested on: MDCK-PSMA cells; assay: Domain specific internalization assay of J591; details: MDCK-PSMA monolayers, 2 μM drug 3 hours; for J591 uptake from the apical surface after drug treatment: then 5 μg/ml J591 30 minutes in apical chamber, FIG. 6F-H; for J591 internalization from the basolateral surface after drug treatment: then 5 μg/ml J591 30 minutes in basolateral chamber, FIG. 6J-L
Description: MDCK-PSMA cells were grown on […] pore size polycarbonate transwell filters (Corning, Corning, N.Y.) and grown to confluence as measured by transepithelial electrical resistance (TER) using an EVOM Epithelial Voltometer (World Precision Instruments, Sarasota, Fla.). Values were normalized for the area of the filter after subtracting the background resistance of a filter without cells. TER of 220-250Ω·cm^2 is indicative of the presence of functional tight junctions (24). Cells were treated with 2 μM of vinblastine, vincristine, or vinorelbine at 37° C. for 3 hours and subsequently incubated at 37° C. for 30 minutes in the presence of the indicated drug and 5 μg/ml of J591 added to either the apical or basolateral chamber. Cells were rinsed in PBS-CM, fixed, and subject to immunofluorescence analysis with FITC-conjugated secondary antibody. Single channel digital microscopic images were collected with an Olympus AX70 upright microscope using identical exposure parameters and analyzed with SPOT imaging software, version 4.0.4 (Diagnostic Instruments, Inc., Sterling Heights, Mich.).

[5] = tested on: Na,K-ATPase; assay: Cell surface biotinylation / immunoblot of basolateral marker Na,K-ATPase; details: MDCK-PSMA cells treated with nocodazole; FIG. 5B
Description: as §1, §2
Samples were separated on 10% SDS polyacrylamide gels and transferred to nitrocellulose. […] After washing three times in PBST and once in PBS, bound antibody was detected by peroxidase-catalyzed ECL-Plus (Amersham, Buckinghamshire, UK). Densitometric analysis and quantification of bands was performed using ImageQuant software (Molecular Dynamics, Sunnyvale, Calif.).

[6] = tested on: PSMA; assay: Surface immunofluorescence of PSMA; details: MDCK-PSMA cells treated with nocodazole; data not shown
Description: as §1
For cell surface staining, MDCK cells were grown on transwell filters and the transepithelial electrical resistance (TER) was determined using an EVOM Epithelial Voltohmeter (World Precision Instruments, Sarasota, Fla.). […]
Confocal microscopy was performed using a Fluoview laser scanning confocal microscope (Olympus America, Melville, N.Y.) as described (25). To detect FITC and propidium iodide, samples were excited with krypton and argon lasers and light emitted between 525 and 540 nm was recorded for FITC and above 630 nm for propidium iodide. Images were generated and analyzed using the Fluoview image analysis software, version 2.1.39 (Olympus America).

[7] = tested on: PSMA; assay: Antibody internalization trafficking assay (pulse-chase with mAb J591 in apical or basolateral chamber); details: MDCK-PSMA cells pulsed and chased in the presence of nocodazole (three hours); FIG. 5C
Description: as §1
Confluent monolayers of MDCK-PSMA cells on transwell filters were rinsed twice and incubated for 30 minutes in starving media [cystine/methionine free DMEM (CellGro, Herndon, Va.)] supplemented with 0.2% BSA. […]
For the antibody internalization trafficking assay, MDCK cells were metabolically labeled and chased in DMEM containing 5 μg/ml of mAb J591 added to either the apical or basolateral chamber. […] The relative amount of PSMA for each was calculated as a percentage of the total amount of labeled PSMA precipitated throughout the course of the experiment, as quantified by densitometry.

Molecule | depolymerization of the microtubule cytoskeleton [3] | J591 uptake from the apical surface after drug treatment [4] | J591 internalization from the basolateral surface after drug treatment [4] | further results
tunicamycin |  |  |  | level of co-localization of post-Golgi vesicles containing PSMA and Na,K-ATPase ([1]; MDCK-PSMA cells incubated with tunicamycin, 20° C. block then 37° C., 38/88 vesicles): approximately 43%; distribution of surface PSMA between apical and basolateral plasma membrane ([2]; MDCK-PSMA cells metabolically labeled in the presence of tunicamycin (10 μg/ml, 4 hours), FIG. 4): equivalent levels at both plasma membrane surfaces
CC[C@]1(O)C[C@H]2CN(CCc3c([nH]c4ccccc34)[C@@](C(=O)OC)(c3cc4c(cc3OC)N(C=O)[C@H]3[C@@](O)(C(=O)OC)[C@H](OC(C)=O)[C@]5(CC)C=CCN6CC[C@]43[C@@H]65)C2)C1 [vincristine] | Extensive microtubule depolymerization | also taken up from the apical surface | dramatic increase | 
COC(=O)Nc1nc2cc(C(=O)c3cccs3)ccc2[nH]1 [nocodazole, methyl[5-(2-thienyl-carbonyl)-1H-benzimidazol-2-yl]-carbamate] |  |  |  | polarity of the basolateral marker Na,K-ATPase [5]: unaffected; co-localization of PSMA and Na,K-β-GFP in post-Golgi vesicles ([1]; in the presence of nocodazole, after release from 20° C. block): did not show an increased co-localization; PSMA expression at the basolateral plasma membrane relative to untreated cells [6]: increased PSMA expression at the basolateral plasma membrane; distribution of surface PSMA between apical and basolateral plasma membrane ([2]; MDCK-PSMA cells treated with nocodazole (4 μg/ml, 3 hours), FIG. 5A): homogeneous distribution; radiolabeled PSMA precipitated with J591 in apical versus basolateral chamber (polarized delivery of PSMA) [7]: equivalent levels; also recorded: abolished
CC[C@]1(O)C[C@@H]2CN(CCc3c([nH]c4ccccc34)[C@@](C(=O)OC)(c3cc4c(cc3OC)N(C)[C@H]3[C@@](O)(C(=O)OC)[C@H](OC(C)=O)[C@]5(CC)C=CCN6CC[C@]43[C@@H]65)C2)C1 [vinblastine] | Extensive microtubule depolymerization | also taken up from the apical surface | dramatic increase | 
CCC1=C[C@@H]2CN(C1)Cc1c([nH]c3ccccc13)[C@@](C(=O)OC)(c1cc3c(cc1OC)N(C)[C@H]1[C@@](O)(C(=O)OC)[C@H](OC(C)=O)[C@]4(CC)C=CCN5CC[C@]31[C@@H]54)C2 [vinorelbine] | Extensive microtubule depolymerization | also taken up from the apical surface | dramatic increase | 
